In this experiment the target is T1, Trpv2 (Rattus norvegicus, UniProt Q9WUD2).
T1 sequence (Q9WUD2 1-761): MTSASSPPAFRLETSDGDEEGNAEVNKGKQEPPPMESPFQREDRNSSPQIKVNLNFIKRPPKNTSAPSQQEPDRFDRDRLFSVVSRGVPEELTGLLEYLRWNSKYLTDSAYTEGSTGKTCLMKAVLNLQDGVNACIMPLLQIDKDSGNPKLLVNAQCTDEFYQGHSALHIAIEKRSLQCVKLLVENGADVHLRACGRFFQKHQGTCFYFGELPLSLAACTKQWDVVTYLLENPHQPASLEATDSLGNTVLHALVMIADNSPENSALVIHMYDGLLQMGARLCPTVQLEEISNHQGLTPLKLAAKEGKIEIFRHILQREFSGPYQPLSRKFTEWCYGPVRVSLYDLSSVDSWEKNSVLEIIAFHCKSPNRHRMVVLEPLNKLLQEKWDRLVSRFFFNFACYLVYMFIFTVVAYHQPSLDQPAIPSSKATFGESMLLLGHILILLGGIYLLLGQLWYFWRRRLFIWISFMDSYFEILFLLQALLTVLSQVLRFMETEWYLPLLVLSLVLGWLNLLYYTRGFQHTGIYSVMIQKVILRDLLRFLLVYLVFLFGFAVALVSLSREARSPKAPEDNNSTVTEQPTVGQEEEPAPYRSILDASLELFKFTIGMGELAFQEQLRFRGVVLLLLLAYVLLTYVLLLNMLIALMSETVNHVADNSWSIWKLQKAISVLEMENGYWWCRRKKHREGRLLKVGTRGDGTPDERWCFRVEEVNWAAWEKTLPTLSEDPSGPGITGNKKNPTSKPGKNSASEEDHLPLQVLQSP
As to the kind of experiment: Single cell patch clamp of DA FLS. Further details: endogenous in cells; host or cells: FLS from DA rats with pristane-induced arthritis. In kind it is cell-based. As to conditions: perfusion with 30 μM. As to the method:
FLS obtained from DA rats with PIA were plated in culture medium onto glass coverslips and allowed to adhere at 37° C. Recordings were performed in the whole-cell configuration of the patch-clamp technique at room temperature using an EPC10-USB amplifier (HEKA instruments, Bellmore, N.Y.). […] The bath solution contained 132 mM NaCl, 5.4 mM KCl, 1.8 mM CaCl2, 0.8 mM MgCl2, 10 mM HEPES, and 10 mM glucose, at pH 7.4. O1821-activated currents were elicited with a 600 ms ramp from −100 to +100 mV from a holding potential of −107 mV. Addition of O1821 was accomplished by complete bath exchange.
In general terms: Patch clamp records ionic current or voltage across a cell membrane.

Trpv2 channel current data for one molecule are collected here from patent US20200277246A1, “TREATMENT METHOD, COMPOUNDS, AND METHOD OF INCREASING TRPV2 ACTIVITY” (THE FEINSTEIN INSTITUTE FOR MEDICAL RESEARCH, priority 2015, published 2020).

Consider `C=C(C)[C@@H]1CCC(C)=C[C@H]1c1c(O)cc(C)cc1O` [Compound O1821], for which the Trpv2 channel current result is listed as “induced channel opening”.
